From patent publication US5082964A, “Selective acetylcholinesterase inhibitors and methods of making and using same” (priority 1986, dated 1992)
Structures can show the parent of a compound that is named as a salt. Where two headings read alike, the source gives them in different places.

What was measured:
[1] = Solubility, hygroscopicity and stability; format: physicochemical
[2] = test system: acetylcholinesterase; test: Time course inactivation of acetylcholinesterase; format: biochemical
Excerpt: The synthetic preparation of the hydrochloride salt of the tertiary amine inhibitors involves only slight modifications of the general method.

[3] = target: acetylcholinesterase; test: Ellman assay for acetylcholinesterase inhibition (enzyme source not given); format: biochemical; conditions: enzyme source not stated
Excerpt: (§1) Ortho-, meta-, and p-chloromethylphenyl choline carbonates are all examples of inhibitors of acetylcholinesterase in accordance with the present invention. Employing the Ellman assay for acetylcholinesterase inhibition [G. L. Ellman, K. D. Courtney, V. Andrews, Jr., and R. M. Featherstone, Biochem. Pharmacol., vol.

[4] = cited from earlier work
[5] = target: acetylcholinesterase (Electrophorus electricus, UniProt O42275); test: Ellman assay for acetylcholinesterase inhibition, IC50 (eel-derived enzyme); format: biochemical, electric eel
Chain of acetylcholinesterase (Electrophorus electricus, UniProt O42275) (O42275 24-633): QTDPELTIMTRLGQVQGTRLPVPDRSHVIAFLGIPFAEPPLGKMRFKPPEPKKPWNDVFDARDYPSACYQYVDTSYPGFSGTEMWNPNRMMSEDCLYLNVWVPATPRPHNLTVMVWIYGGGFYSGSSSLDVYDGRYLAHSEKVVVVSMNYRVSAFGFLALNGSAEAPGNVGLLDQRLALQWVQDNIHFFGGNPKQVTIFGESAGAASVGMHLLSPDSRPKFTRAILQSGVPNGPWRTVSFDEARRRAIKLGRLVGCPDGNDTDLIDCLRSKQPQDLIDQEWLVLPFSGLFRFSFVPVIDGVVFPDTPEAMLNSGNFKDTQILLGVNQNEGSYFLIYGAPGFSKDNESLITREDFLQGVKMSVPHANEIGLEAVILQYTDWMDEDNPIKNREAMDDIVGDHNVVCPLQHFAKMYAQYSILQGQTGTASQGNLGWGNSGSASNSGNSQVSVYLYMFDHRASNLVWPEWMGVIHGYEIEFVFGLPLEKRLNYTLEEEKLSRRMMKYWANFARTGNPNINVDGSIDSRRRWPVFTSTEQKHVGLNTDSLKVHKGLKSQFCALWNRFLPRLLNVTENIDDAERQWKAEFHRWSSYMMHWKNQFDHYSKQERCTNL
Excerpt: as §1
From such competitive inhibitor measurements it was possible to determine an IC50 (proportionate amount necessary to reduce acetylcholinesterase activity by 50%) for various inhibitors [meaning those containing the CH2 X group] in this patent. All IC50 values fell between 8 and 200 uM. The exact value varied with the source of the acetylcholinesterase and quantitative measurements were performed on electric eel and human erythrocyte enzyme. Values reported below are with eel-derived enzyme. [drawing 5] where

[6] = target: acetylcholinesterase; test: Inhibition and inactivation kinetics of acetylcholinesterase, substrate protection; format: biochemical; conditions: for Protection against inactivation by substrate acetylcholine: equimolar concentrations of acetylcholine and inhibitor (10 μM each), pre-incubation state
Excerpt: as §1
p-Chloromethylphenyl choline carbonate iodide salt is an example of an inhibitor of acetylcholinesterase in accordance with the present invention.

CN(C)CCOC(=O)Oc1ccc(CCl)cc1
Water solubility [1]: water- soluble | Time course inactivation relative to p-chloromethylphenyl choline carbonate ([2]; compared with p-chloromethylphenyl choline carbonate): time course inactivation similar to that for the p-chloromethylphenyl choline carbonate | Potency relative to the quaternary compound ([2]; deduced from time course data): as potent as the quaternary compound | Inactivation of acetylcholinesterase ([2]; first 15 minutes at 40 uM concentration): 88%

CC(C)(C)CCOC(=O)Oc1ccc(CCl)cc1 [3,3-dimethylbutyl p-chloromethylphenyl carbonate]
IC50 [3]: 8 µM

CCOP(=O)(OCC)OP(=O)(OCC)OP(=O)(OCC)OP(=O)(OCC)OCC (stereo not shown) [hexaethyltetraphosphate]
Solubility in petroleum ethers and kerosene [4]: general insolubility | Solubility in water (known inhibitors) [4]: somewhat soluble in water

C[N+](C)(C)CCOC(=O)Oc1cccc(CCl)c1 [meta-CH2 Cl]
IC50 [5]: 150 µM

C[N+](C)(C)CCOC(=O)Oc1ccccc1CCl [ortho-CH2 Cl]
IC50 [5]: 100 µM

C[N+](C)(C)CCOC(=O)Oc1ccc(CCl)cc1 [p-chloromethyl phenyl choline carbonate iodide salt]
IC50 ([5]; eel-derived enzyme, Ellman assay, read-out: IC50 (proportionate amount necessary to reduce acetylcholinesterase activity by 50%)): 40 µM | Hygroscopicity ([1]; solid iodide salt): very hygroscopic | Ki ([6]; 25° C., pH=8 phosphate buffer): 32 µM | Km ([6]; 25° C., pH=8 phosphate buffer): 144 µM | Inactivation mode / kinetics ([6]; below inhibitor concentrations of 40 μM): time-dependent manner with pseudo first order kinetics | Protection against inactivation by substrate acetylcholine [6]: offers partial protection against inactivation | Protection against inactivation by substrate acetylcholine ([6]; listed as p-chloromethyl derivative): offers protection against inactivation
